Test results taken from US20090264384A1, “INDOLE, BENZIMIDAZOLE, AND BENZOLACTAM BORONIC ACID COMPOUNDS, ANALOGS THEREOF AND METHODS OF USE THEREOF” (Nuada, Inc., priority 2004, published 2009).
Values joined by “and” are separate entries in the source; they are usually repeats but may differ in a detail not shown here. Equal entries are not always repeated.

Columns and labels:
phosphodiesterase [1] = molecular target: T1, phosphodiesterase (Bos taurus, UniProt P11541+P23439); assay: In vitro phosphodiesterase enzyme assays of Example 39 (IC50 determination); assay type: biochemical; details: Hill coefficient, Phosphodiesterase 6
T1 construct: IC50; other: Phosphodiesterase 6 (bovine retina); nH; other: Hill coefficient, Phosphodiesterase 6
T1 sequence (P11541 2-856): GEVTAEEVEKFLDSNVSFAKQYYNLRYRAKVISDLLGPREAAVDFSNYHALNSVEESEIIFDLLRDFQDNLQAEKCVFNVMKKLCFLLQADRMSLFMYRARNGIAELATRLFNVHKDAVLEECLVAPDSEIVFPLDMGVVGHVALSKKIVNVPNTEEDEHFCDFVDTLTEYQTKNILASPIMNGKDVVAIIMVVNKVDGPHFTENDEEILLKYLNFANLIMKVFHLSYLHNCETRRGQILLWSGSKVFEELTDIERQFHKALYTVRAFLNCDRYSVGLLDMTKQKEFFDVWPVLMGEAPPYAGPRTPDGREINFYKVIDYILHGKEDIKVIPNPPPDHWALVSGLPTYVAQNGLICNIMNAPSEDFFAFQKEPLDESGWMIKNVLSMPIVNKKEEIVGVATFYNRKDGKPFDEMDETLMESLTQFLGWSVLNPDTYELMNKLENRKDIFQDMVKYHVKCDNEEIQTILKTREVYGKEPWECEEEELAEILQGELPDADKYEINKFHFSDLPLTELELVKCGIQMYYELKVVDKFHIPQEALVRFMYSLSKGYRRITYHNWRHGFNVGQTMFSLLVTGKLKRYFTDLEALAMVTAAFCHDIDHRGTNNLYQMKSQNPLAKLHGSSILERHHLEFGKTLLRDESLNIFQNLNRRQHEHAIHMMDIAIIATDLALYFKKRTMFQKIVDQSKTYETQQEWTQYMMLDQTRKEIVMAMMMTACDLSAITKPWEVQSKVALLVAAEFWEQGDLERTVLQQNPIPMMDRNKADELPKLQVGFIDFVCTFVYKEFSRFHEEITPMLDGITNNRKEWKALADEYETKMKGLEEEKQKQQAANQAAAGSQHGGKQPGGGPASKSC
T1 sequence (P23439 2-850): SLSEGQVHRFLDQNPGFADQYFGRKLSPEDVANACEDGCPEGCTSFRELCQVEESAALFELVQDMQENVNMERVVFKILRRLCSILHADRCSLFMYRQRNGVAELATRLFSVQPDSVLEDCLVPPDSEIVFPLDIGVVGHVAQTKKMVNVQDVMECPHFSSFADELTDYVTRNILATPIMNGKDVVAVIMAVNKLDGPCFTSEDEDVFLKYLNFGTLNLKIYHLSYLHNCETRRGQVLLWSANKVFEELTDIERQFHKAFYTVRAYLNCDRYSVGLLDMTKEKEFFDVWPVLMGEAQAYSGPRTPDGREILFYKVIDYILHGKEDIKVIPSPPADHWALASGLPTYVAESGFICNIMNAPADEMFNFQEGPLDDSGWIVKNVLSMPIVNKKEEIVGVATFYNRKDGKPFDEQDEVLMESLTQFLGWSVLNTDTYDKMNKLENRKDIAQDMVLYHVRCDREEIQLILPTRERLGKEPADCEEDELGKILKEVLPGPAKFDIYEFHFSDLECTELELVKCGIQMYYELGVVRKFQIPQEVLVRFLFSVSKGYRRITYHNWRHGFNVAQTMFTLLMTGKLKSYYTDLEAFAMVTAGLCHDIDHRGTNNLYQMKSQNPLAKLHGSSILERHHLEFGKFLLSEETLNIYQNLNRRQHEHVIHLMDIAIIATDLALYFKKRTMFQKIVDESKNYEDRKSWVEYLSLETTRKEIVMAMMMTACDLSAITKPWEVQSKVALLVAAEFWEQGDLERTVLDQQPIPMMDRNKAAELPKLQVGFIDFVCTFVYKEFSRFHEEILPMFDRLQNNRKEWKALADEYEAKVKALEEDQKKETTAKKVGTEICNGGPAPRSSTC
T1 sequence (P04972 whole entry partner): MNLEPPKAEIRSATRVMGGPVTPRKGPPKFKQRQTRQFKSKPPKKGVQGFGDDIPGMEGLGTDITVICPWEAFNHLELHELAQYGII
Method: (§1) The in vitro pharmacology of 5-(2-(4-Methoxyphenyl)-1H-benzo[d]imidazol-1-yl)pentylboronic acid was determined with several enzymes as described in Table 19 using the experimental conditions of Table 18.
(§2) Results. The corresponding inhibition curves were also determined (data not shown). Each is within accepted limits of the historic average ±0.5 log units. Table 21 contains the mean experimental values for the […] as performed as described above.

phosphodiesterase [2] = molecular target: T2, phosphodiesterase (Homo sapiens, UniProt O00408); assay: as above; assay type: biochemical
T2 construct: IC50; other: Phosphodiesterase 2 (h); nH; other: Hill coefficient, Phosphodiesterase 2 (h)
T2 sequence (O00408 whole entry): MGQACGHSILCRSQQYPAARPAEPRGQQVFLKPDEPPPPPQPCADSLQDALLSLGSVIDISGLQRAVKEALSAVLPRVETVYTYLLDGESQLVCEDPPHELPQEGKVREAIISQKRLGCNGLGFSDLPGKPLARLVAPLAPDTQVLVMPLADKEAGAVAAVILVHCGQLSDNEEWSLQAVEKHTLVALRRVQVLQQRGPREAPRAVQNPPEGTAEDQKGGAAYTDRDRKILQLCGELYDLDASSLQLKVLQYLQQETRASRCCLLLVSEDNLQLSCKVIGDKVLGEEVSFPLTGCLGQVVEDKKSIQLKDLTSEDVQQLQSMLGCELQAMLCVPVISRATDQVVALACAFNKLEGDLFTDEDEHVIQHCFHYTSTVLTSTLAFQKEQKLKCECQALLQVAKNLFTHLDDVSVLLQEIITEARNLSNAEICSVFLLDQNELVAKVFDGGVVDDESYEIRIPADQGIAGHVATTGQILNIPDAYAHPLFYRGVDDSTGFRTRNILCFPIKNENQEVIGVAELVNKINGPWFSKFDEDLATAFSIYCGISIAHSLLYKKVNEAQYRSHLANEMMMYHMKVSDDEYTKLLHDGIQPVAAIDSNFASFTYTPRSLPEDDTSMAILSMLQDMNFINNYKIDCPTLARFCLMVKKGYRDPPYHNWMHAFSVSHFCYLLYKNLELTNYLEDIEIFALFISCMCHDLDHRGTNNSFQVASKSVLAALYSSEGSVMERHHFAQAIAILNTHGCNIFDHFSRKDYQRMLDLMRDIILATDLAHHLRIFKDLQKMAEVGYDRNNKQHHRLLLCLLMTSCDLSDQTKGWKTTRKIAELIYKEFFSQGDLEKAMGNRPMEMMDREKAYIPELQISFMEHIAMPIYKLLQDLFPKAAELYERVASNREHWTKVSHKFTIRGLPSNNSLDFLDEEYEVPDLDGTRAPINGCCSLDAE
Method: as §1, §2

phosphodiesterase [3] = molecular target: T3, phosphodiesterase (Homo sapiens, UniProt O76074); assay: as above; assay type: biochemical
T3 construct: IC50; other: Phosphodiesterase 5 (h); nH; other: Hill coefficient, Phosphodiesterase 5 (h)
Method: as §1, §2

phosphodiesterase [4] = molecular target: T4, phosphodiesterase; assay: as above; assay type: biochemical; details: Phosphodiesterase 4 (h)
T4 construct: IC50; other: Phosphodiesterase 4 (h); nH; other: Hill coefficient, Phosphodiesterase 4 (h)
Method: as §1, §2

TNF-α production by PMBC = assay: Inhibition of TNF-α Production By Peripheral Blood Monocyte Cells (PMBC), LPS stimulated; assay type: cell-based; details: 1 ug/mL LPS, 24 hours
Method: PMBC in RPMI 1640 Cell Culture Medium (containing 1% Penicillin and 1% Streptomycin) are aliquoted into 96-well plates at 5×10^5 cells/well and pre-incubated with test compounds for 30 minutes at 37° C. After incubation, 1 ug/mL LPS is added to each well to stimulate TNF-α production and the plate is incubated for 24 hours at 37° C. After incubation, the supernatant is removed and the TNF-α secreted is quantified using EIA detection kits commercially available from R&D Systems (USA). The results from this assay are expressed as percent inhibition of control activity, with the control being stimulated wells with no test compound. Dexamethasone is used as a standard reference compound in the assay and is tested with each experiment. All test compounds are diluted from 10 mM stock solutions in 100% DMSO.

[5] = system: arachidonic acid-induced ear edema; assay: Arachidonic acid-induced mouse ear edema model; assay type: in vivo; details: for inhibition of the irritant-induced ear edema: thirty minutes prior to arachidonic acid challenge; for Change in Ear Weight (mg) Average / % Inhibition / Ear Weight (mg) Left (−AA) / Ear Weight (mg) Right (+AA): topical; for % Inhibition: change in ear weight vs vehicle; for Ear Weight (mg) Left (−AA) / Ear Weight (mg) Right (+AA): individual mice
Method: This example was carried out in male BALB/c mice. 42 BALB/c mice (Harlan Sprague-Dawley, Inc., male, PO # 452036, R #2449, 5-6 weeks) were received, individually examined, and housed in four cages of ten mice each and one cage containing two mice. Each animal was in apparent good health: no clinical signs of disease or distress. The animals were placed in quarantine with daily inspections.
(§3) An aliquot of a representative presently disclosed compound was stored in an amber glass vial and stored at 25° C. […] 0.1 mL of this solution was diluted into 0.9 mL 190 proof alcohol to prepare a 0.5% solution.
30 mg indomethacin (Sigma Cat. I-7378, lot 60K0745) was dissolved in 5 ml 0.1 M NaHCO3 to prepare a 6 mg/mL solution.
48.9 μL arachidonic acid (Sigma Cat. A-9673. lot 057K1620) was dissolved in 450 μL 190 proof alcohol to prepare a 100 mg/mL solution.
The mice were numbered and weighed. The mice in Groups 1, 3, 4 were topically treated on both sides of both ears with either 25 μL 190 proof alcohol, 5% 5-(2-(4-Methoxyphenyl)-1H-benzo[d]imidazol-1-yl)pentylboronic acid, or 0.5% 5-(2-(4-Methoxyphenyl)-1H-benzo[d]imidazol-1-yl)pentylboronic acid. The mice in Group 2 were injected intraperitoneally with 5 mL/kg indomethacin (30 mg/kg). Thirty minutes after 190 proof alcohol, indomethacin, or 5-(2-(4-Methoxyphenyl)-1H-benzo[d]imidazol-1-yl)pentylboronic acid application/administration, 5 μL of the arachidonic acid solution was applied to the dorsal and ventral sides of the right ear. The contralateral ear was treated with 190 proof alcohol. One hour after alcohol/arachidonic acid application, the mice were euthanized, the ears removed and the ear weights recorded.
Significance (p-value) was calculated using Student's T-test. The effect of prophylactic topical treatment with a representative presently disclosed compound on arachidonic acid-induced murine ear edema is shown in FIG. 16.

[6] = Solubility when preparing the topical solution; assay type: physicochemical
Method: as §3

HERG channel = HERG channel (Homo sapiens, UniProt Q12809); assay: ADME-Tox: QT Prolongation, HERG (patch-clamp)
Chain of HERG channel (Q12809 whole entry): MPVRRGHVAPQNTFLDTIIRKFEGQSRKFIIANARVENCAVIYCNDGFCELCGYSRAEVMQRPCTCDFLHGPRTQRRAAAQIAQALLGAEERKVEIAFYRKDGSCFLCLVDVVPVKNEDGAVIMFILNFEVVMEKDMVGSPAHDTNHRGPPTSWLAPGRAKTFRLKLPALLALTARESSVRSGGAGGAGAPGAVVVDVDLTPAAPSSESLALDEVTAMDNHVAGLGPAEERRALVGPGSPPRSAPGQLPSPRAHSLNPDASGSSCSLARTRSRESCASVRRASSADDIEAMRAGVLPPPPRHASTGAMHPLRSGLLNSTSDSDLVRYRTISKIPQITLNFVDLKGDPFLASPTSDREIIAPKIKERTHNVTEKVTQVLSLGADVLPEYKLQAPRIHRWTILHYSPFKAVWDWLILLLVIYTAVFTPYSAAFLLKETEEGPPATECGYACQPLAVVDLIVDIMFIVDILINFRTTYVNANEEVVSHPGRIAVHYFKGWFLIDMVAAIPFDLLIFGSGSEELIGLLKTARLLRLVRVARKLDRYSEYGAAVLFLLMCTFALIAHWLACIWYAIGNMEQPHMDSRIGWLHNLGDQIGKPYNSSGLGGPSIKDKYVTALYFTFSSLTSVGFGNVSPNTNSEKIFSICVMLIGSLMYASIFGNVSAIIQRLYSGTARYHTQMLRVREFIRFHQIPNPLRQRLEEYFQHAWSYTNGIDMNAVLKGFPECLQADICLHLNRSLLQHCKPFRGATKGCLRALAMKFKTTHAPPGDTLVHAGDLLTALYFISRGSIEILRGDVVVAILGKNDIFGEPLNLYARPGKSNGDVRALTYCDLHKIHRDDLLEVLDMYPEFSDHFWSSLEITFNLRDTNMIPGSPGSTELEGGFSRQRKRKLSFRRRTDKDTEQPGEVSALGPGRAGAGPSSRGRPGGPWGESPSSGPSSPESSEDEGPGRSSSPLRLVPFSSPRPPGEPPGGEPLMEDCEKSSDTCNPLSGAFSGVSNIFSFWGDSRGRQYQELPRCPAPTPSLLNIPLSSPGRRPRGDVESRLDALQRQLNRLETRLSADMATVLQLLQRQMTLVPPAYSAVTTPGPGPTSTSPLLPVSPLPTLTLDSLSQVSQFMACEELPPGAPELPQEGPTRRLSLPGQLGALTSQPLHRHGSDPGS

hERG = hERG (Homo sapiens, UniProt Q12809); assay: ADME-Tox: QT Prolongation, HERG (patch-clamp); details: human, HEK-293 cells stably expressing HERG
Chain of hERG (Q12809 whole entry): as above

COc1ccc(-c2nc3ccccc3n2CCCCCB(O)O)cc1 [Example 7, 5-(2-(4-Methoxyphenyl)-1H-benzo[d]imidazol-1-yl)pentylboronic acid]
nH (phosphodiesterase [1]): 0.9
nH (phosphodiesterase [2]; Hill coefficient, Phosphodiesterase 2(h)): 0.8
IC50 (phosphodiesterase [2]; Phosphodiesterase 2 (h)): 110 nM
nH (phosphodiesterase [3]; Hill coefficient, Phosphodiesterase 5(h)): 0.7
IC50 (phosphodiesterase [3]; Phosphodiesterase 5 (h)): 960 nM
IC50 (phosphodiesterase [4]): 420 nM
IC50 (TNF-α production by PMBC): 200 nM
inhibition of the irritant-induced ear edema ([5]; 0.5% solution topical): 12%
Change in Ear Weight (mg) Average ([5]; 0.5%): 44.1 mg
inhibition of the irritant-induced ear edema ([5]; 5% solution topical): 46%
Change in Ear Weight (mg) Average ([5]; 5%): 26.9 mg
% Inhibition ([5]; 0.5%): 12.2%
% Inhibition ([5]; 5%): 46.4%
Ear Weight (mg) Left (−AA) ([5]; 0.5%): 22 mg (2×) and 20 mg (4×) and 34 mg and 23 mg and 24 mg and 21 mg
Ear Weight (mg) Right (+AA) ([5]; 0.5%): 76 mg and 63 mg and 55 mg and 82 mg and 78 mg and 50 mg and 62 mg and 77 mg and 60 mg and 64 mg
Ear Weight (mg) Left (−AA) ([5]; 5%): 23 mg (3×) and 24 mg (2×) and 22 mg (3×) and 20 mg and 21 mg
Ear Weight (mg) Right (+AA) ([5]; 5%): 50 mg and 48 mg and 57 mg and 42 mg and 55 mg and 51 mg and 53 mg and 49 mg and 44 mg (2×)
solubility in acetone [6]: not soluble in acetone
Potency Ranking (HERG channel; HERG-channel blocker ranking, from 1 μM test (Table 21)): Moderate/High
HERG-channel blocker potency class (HERG channel; general potency ranking system (Roche et al.)): moderate/high
inhibition at 1 µM (hERG): 49.7%
